Test results as given in patent publication US20260028326A1, “COMPOUND BASED ON ISOINDOLINE-SUBSTITUTED GLUTARIMIDE BACKBONE AND USE THEREOF” (GLUETACS THERAPEUTICS (SHANGHAI) CO., LTD., priority 2022, published 2026).

What follows are compounds tested against human Cereblon WT GST-tagged protein (Homo sapiens (Human), UniProt Q96SW2) (assay: CRBN-binding affinity, HTRF (CEREBLON BINDING kit)).
How it was run: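 GST-tagged human WT Cereblon incubated with compound, then Thalidomide-Re tracer and anti-GST Eu antibody added. Displacement read by HTRF, reported as CRBN binding inhibition rate against blank control wells without protein.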

Chain of human Cereblon WT GST-tagged protein (Q96SW2 whole entry): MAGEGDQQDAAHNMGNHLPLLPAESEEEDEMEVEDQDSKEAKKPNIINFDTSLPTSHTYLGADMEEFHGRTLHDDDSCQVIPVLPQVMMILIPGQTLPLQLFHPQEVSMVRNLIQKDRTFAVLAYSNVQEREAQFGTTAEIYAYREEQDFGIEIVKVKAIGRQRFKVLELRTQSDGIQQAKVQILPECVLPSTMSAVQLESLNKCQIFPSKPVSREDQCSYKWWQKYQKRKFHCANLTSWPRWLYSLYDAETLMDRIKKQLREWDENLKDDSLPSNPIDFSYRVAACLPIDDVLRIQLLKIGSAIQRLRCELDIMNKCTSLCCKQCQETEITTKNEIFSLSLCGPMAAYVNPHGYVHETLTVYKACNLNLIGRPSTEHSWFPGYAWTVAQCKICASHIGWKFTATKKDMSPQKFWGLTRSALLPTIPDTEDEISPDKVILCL

SMILES | IC50
CC1(C)CCC(C(=O)N2CCC(Cc3ccc4c(c3)CN(C3CCC(=O)NC3=O)C4=O)CC2)=C(c2ccc(F)cc2)C1 (stereo not shown) [GT-05487, 3-(5-((1-(4′-fluoro-5,5-dimethyl-3,4,5,6-tetrahydro-[1,1′-biphenyl]-2-carbonyl)piperidin-4-yl)methyl)-1-oxoisoindolin-2-yl)piperidine-2,6-dione] | 650 nM
CC1(C)CCC(C(=O)N2CC(Cc3ccc4c(c3)CN(C3CCC(=O)NC3=O)C4=O)C2)=C(c2ccc(F)cc2)C1 (stereo not shown) [GT-05488, 3-(5-((1-(4′-fluoro-5,5-dimethyl-3,4,5,6-tetrahydro-[1,1′-biphenyl]-2-carbonyl)azetidin-3-yl)methyl)-1-oxoisoindolin-2-yl)piperidine-2,6-dione] | 600 nM
CC1(C)CCC(C(=O)N2CC(=Cc3ccc4c(c3)CN(C3CCC(=O)NC3=O)C4=O)C2)=C(c2ccc(F)cc2)C1 (stereo not shown) [GT-05489, 3-(5-((1-(4′-fluoro-5,5-dimethyl-3,4,5,6-tetrahydro-[1,1′-biphenyl]-2-carbonyl)azetidin-3-ylidene)methyl)-1-oxoisoindolin-2-yl)piperidine-2,6-dione] | 610 nM
CC1(C)CCC(C(=O)N2C3CCC2CN(c2ccc4c(c2)CN(C2CCC(=O)NC2=O)C4=O)C3)=C(c2ccc(F)cc2)C1 (stereo not shown) [GT-05491, 3-(5-(8-(4′-fluoro-5,5-dimethyl-3,4,5,6-tetrahydro-[1,1′-biphenyl]-2-carbonyl)-3,8-diazabicyclo[3.2.1]octan-3-yl)-1-oxoisoindolin-2-yl)piperidine-2,6-dione] | 970 nM
CC1(C)CCC(C(=O)N2CC3CCC(C2)N3c2ccc3c(c2)CN(C2CCC(=O)NC2=O)C3=O)=C(c2ccc(F)cc2)C1 (stereo not shown) [GT-05492, 3-(5-(3-(4′-fluoro-5,5-dimethyl-3,4,5,6-tetrahydro-[1,1′-biphenyl]-2-carbonyl)-3,8-diazabicyclo[3.2.1]octan-8-yl)-1-oxoisoindolin-2-yl)piperidine-2,6-dione] | 830 nM
CC1(C)CCC(CN2CC(Cc3ccc4c(c3)CN(C3CCC(=O)NC3=O)C4=O)C2)=C(c2ccc(F)cc2)C1 (stereo not shown) [GT-05493, 3-(5-((1-((4′-fluoro-5,5-dimethyl-3,4,5,6-tetrahydro-[1,1′-biphenyl]-2-yl)methyl)azetidin-3-yl)methyl)-1-oxoisoindolin-2-yl)piperidine-2,6-dione] | 760 nM
CC1(C)CCC(CN2CC3CCC(C2)N3c2ccc3c(c2)CN(C2CCC(=O)NC2=O)C3=O)=C(c2ccc(F)cc2)C1 (stereo not shown) [GT-05498, 3-(5-(3-((4′-fluoro-5,5-dimethyl-3,4,5,6-tetrahydro-[1,1′-biphenyl]-2-yl)methyl)-3,8-diazabicyclo[3.2.1]octan-8-yl)-1-oxoisoindolin-2-yl)piperidine-2,6-dione] | 1520 nM
CC1(C)CCC(CN2CC(O)(C(O)c3ccc4c(c3)CN(C3CCC(=O)NC3=O)C4=O)C2)=C(c2ccc(F)cc2)C1 (stereo not shown) [GT-05499, 3-(5-((1-((4′-fluoro-5,5-dimethyl-3,4,5,6-tetrahydro-[1,1′-biphenyl]-2-yl)methyl)-3-hydroxyazetidin-3-yl)(hydroxy)methyl)-1-oxoisoindolin-2-yl)piperidine-2,6-dione] | 670 nM
CC1(C)CCC(CN2C3CCC2CN(c2ccc4c(c2)CN(C2CCC(=O)NC2=O)C4=O)C3)=C(c2ccc(F)cc2)C1 (stereo not shown) [GT-05500, 3-(5-(8-((4′-fluoro-5,5-dimethyl-3,4,5,6-tetrahydro-[1,1′-biphenyl]-2-yl)methyl)-3,8-diazabicyclo[3.2.1]octan-3-yl)-1-oxoisoindolin-2-yl)piperidine-2,6-dione] | 1870 nM
CC1(C)CCC(CN2CCCN(C(=O)c3ccc4c(c3)CN(C3CCC(=O)NC3=O)C4=O)CC2)=C(c2ccc(F)cc2)C1 (stereo not shown) [GT-05505, 3-(5-(4-((4′-fluoro-5,5-dimethyl-3,4,5,6-tetrahydro-[1,1′-biphenyl]-2-yl)methyl)-1,4-diazepane-1-carbonyl)-1-oxoisoindolin-2-yl)piperidine-2,6-dione] | 810 nM
CC1(C)CCC(CN2CCC3(CC2)CN(Cc2ccc4c(c2)CN(C2CCC(=O)NC2=O)C4=O)C3)=C(c2ccc(F)cc2)C1 (stereo not shown) [GT-05506, 3-(5-((7-((4′-fluoro-5,5-dimethyl-3,4,5,6-tetrahydro-[1,1′-biphenyl]-2-yl)methyl)-2,7-diazaspiro[3.5]nonan-2-yl)methyl)-1-oxoisoindolin-2-yl)piperidine-2,6-dione] | 540 nM
CC1(C)CCC(CN2CCC3(CC2)CN(C(=O)c2ccc4c(c2)CN(C2CCC(=O)NC2=O)C4=O)C3)=C(c2ccc(F)cc2)C1 (stereo not shown) [GT-05507, 3-(5-(7-((4′-fluoro-5,5-dimethyl-3,4,5,6-tetrahydro-[1,1′-biphenyl]-2-yl)methyl)-2,7-diazaspiro[3.5]nonane-2-carbonyl)-1-oxoisoindolin-2-yl)piperidine-2,6-dione] | 1240 nM
CC1(C)CCC(CN2CC3(C2)CN(C(=O)c2ccc4c(c2)CN(C2CCC(=O)NC2=O)C4=O)C3)=C(c2ccc(F)cc2)C1 (stereo not shown) [GT-05508, 3-(5-(6-((4′-fluoro-5,5-dimethyl-3,4,5,6-tetrahydro-[1,1′-biphenyl]-2-yl)methyl)-2,6-diazaspiro[3.3]heptane-2-carbonyl)-1-oxoisoindolin-2-yl)piperidine-2,6-dione] | 720 nM
CC1(C)CCC(CN2C3CC2CN(Cc2ccc4c(c2)CN(C2CCC(=O)NC2=O)C4=O)C3)=C(c2ccc(F)cc2)C1 (stereo not shown) [GT-05509, 3-(5-((6-((4′-fluoro-5,5-dimethyl-3,4,5,6-tetrahydro-[1,1′-biphenyl]-2-yl)methyl)-3,6-diazabicyclo[3.1.1]heptan-3-yl)methyl)-1-oxoisoindolin-2-yl)piperidine-2,6-dione] | 250 nM
CC1(C)CCC(CN2C3CCC2CN(Cc2ccc4c(c2)CN(C2CCC(=O)NC2=O)C4=O)C3)=C(c2ccc(F)cc2)C1 (stereo not shown) [GT-05510, 3-(5-((8-((4′-fluoro-5,5-dimethyl-3,4,5,6-tetrahydro-[1,1′-biphenyl]-2-yl)methyl)-3,8-diazabicyclo[3.2.1]octan-3-yl)methyl)-1-oxoisoindolin-2-yl)piperidine-2,6-dione] | 1220 nM
CC1(C)CCC(CN2C3CCC2CN(C(=O)c2ccc4c(c2)CN(C2CCC(=O)NC2=O)C4=O)C3)=C(c2ccc(F)cc2)C1 (stereo not shown) [GT-05511, 3-(5-(8-((4′-fluoro-5,5-dimethyl-3,4,5,6-tetrahydro-[1,1′-biphenyl]-2-yl)methyl)-3,8-diazabicyclo[3.2.1]octane-3-carbonyl)-1-oxoisoindolin-2-yl)piperidine-2,6-dione] | 1950 nM
CC1(C)CCC(C(=O)N2CC3CC(C2)N3Cc2ccc3c(c2)CN(C2CCC(=O)NC2=O)C3=O)=C(c2ccc(F)cc2)C1 (stereo not shown) [GT-05514, 3-(5-((3-(4′-fluoro-5,5-dimethyl-3,4,5,6-tetrahydro-[1,1′-biphenyl]-2-carbonyl)-3,6-diazabicyclo[3.1.1]heptan-6-yl)methyl)-1-oxoisoindolin-2-yl)piperidine-2,6-dione] | 740 nM
CC1(C)CCC(C(=O)N2CC3CCC(C2)N3Cc2ccc3c(c2)CN(C2CCC(=O)NC2=O)C3=O)=C(c2ccc(F)cc2)C1 (stereo not shown) [GT-05516, 3-(5-((3-(4′-fluoro-5,5-dimethyl-3,4,5,6-tetrahydro-[1,1′-biphenyl]-2-carbonyl)-3,8-diazabicyclo[3.2.1]octan-8-yl)methyl)-1-oxoisoindolin-2-yl)piperidine-2,6-dione] | 600 nM
CC1(C)CCC(C(=O)N2C3CCC2CN(Cc2ccc4c(c2)CN(C2CCC(=O)NC2=O)C4=O)C3)=C(c2ccc(F)cc2)C1 (stereo not shown) [GT-05517, 3-(5-((8-(4′-fluoro-5,5-dimethyl-3,4,5,6-tetrahydro-[1,1′-biphenyl]-2-carbonyl)-3,8-diazabicyclo[3.2.1]octan-3-yl)methyl)-1-oxoisoindolin-2-yl)piperidine-2,6-dione] | 600 nM
CC1(C)CCC(C(=O)N2CCN(Cc3ccc4c(c3)CN(C3CCC(=O)NC3=O)C4=O)CC2)=C(c2ccc(F)cc2)C1 (stereo not shown) [GT-05520, 3-(5-((4-(4′-fluoro-5,5-dimethyl-3,4,5,6-tetrahydro-[1,1′-biphenyl]-2-carbonyl)piperazin-1-yl)methyl)-1-oxoisoindolin-2-yl)piperidine-2,6-dione] | 350 nM
CC1(C)CCC(C(=O)N2CC3CC(C2)N3Cc2ccc3c(c2)CN(C2CCC(=O)NC2=O)C3=O)=C(c2ccc(Cl)cc2)C1 (stereo not shown) [GT-05521, 3-(5-((3-(4′-chloro-5,5-dimethyl-3,4,5,6-tetrahydro-[1,1′-biphenyl]-2-carbonyl)-3,6-diazabicyclo[3.1.1]heptan-6-yl)methyl)-1-oxoisoindolin-2-yl)piperidine-2,6-dione] | 620 nM
CC1(C)CCC(C(=O)N2CC3CCC(C2)N3Cc2ccc3c(c2)CN(C2CCC(=O)NC2=O)C3=O)=C(c2ccc(Cl)cc2)C1 (stereo not shown) [GT-05522, 3-(5-((3-(4′-chloro-5,5-dimethyl-3,4,5,6-tetrahydro-[1,1′-biphenyl]-2-carbonyl)-3,8-diazabicyclo[3.2.1]octan-8-yl)methyl)-1-oxoisoindolin-2-yl)piperidine-2,6-dione] | 480 nM
CC1(C)CCC(C(=O)N2C3CCC2CN(Cc2ccc4c(c2)CN(C2CCC(=O)NC2=O)C4=O)C3)=C(c2ccc(Cl)cc2)C1 (stereo not shown) [GT-05523, 3-(5-((8-(4′-chloro-5,5-dimethyl-3,4,5,6-tetrahydro-[1,1′-biphenyl]-2-carbonyl)-3,8-diazabicyclo[3.2.1]octan-3-yl)methyl)-1-oxoisoindolin-2-yl)piperidine-2,6-dione] | 860 nM
CC1(C)CCC(C(=O)N2CC3CC2CN3Cc2ccc3c(c2)CN(C2CCC(=O)NC2=O)C3=O)=C(c2ccc(Cl)cc2)C1 (stereo not shown) [GT-05524, 3-(5-((5-(4′-chloro-5,5-dimethyl-3,4,5,6-tetrahydro-[1,1′-biphenyl]-2-carbonyl)-2,5-diazabicyclo[2.2.1]heptan-2-yl)methyl)-1-oxoisoindolin-2-yl)piperidine-2,6-dione] | 490 nM
CC1(C)CCC(C(=O)N2CCN(Cc3ccc4c(c3F)CN(C3CCC(=O)NC3=O)C4=O)CC2)=C(c2ccc(Cl)cc2)C1 (stereo not shown) [GT-05525, 3-(5-((4-(4′-chloro-5,5-dimethyl-3,4,5,6-tetrahydro-[1,1′-biphenyl]-2-carbonyl)piperazin-1-yl)methyl)-4-fluoro-1-oxoisoindolin-2-yl)piperidine-2,6-dione] | 710 nM
